For assay [1], the target named is SRSF protein kinase 3 (Homo sapiens) (UniProt Q9UPE1). The assay is described as follows: Selectivity interaction (ProQinase) EUB0000171b SRPK3.
The target of assay [2] is Epidermal growth factor receptor (Homo sapiens, UniProt P00533). The assay is described as follows: Selectivity interaction (Enzyme panel (AstraZeneca, AlphaScreen, functional assay)) EUB0000621a EGFR.
Assay [3] deals with Receptor tyrosine-protein kinase erbB-4 (Homo sapiens, UniProt Q15303). The note with it: at 10 µM.
In assay [4] the test system is Tyrosine-protein kinase ABL1 (Homo sapiens), P00519 [T315I]. The assay is described as follows: (§1) Selectivity interaction (Millipore kinase profiler) EUB0000124b ABL1. Particulars: at 10 µM.
The target of assay [5] is Tyrosine-protein kinase ABL1 (Homo sapiens, UniProt P00519). The assay is described as §1. The note with it: at 10 µM.
The target of assay [6] is T1, Serine/threonine-protein kinase Nek1 (Homo sapiens) (UniProt Q96PY6).
T1 sequence (whole entry): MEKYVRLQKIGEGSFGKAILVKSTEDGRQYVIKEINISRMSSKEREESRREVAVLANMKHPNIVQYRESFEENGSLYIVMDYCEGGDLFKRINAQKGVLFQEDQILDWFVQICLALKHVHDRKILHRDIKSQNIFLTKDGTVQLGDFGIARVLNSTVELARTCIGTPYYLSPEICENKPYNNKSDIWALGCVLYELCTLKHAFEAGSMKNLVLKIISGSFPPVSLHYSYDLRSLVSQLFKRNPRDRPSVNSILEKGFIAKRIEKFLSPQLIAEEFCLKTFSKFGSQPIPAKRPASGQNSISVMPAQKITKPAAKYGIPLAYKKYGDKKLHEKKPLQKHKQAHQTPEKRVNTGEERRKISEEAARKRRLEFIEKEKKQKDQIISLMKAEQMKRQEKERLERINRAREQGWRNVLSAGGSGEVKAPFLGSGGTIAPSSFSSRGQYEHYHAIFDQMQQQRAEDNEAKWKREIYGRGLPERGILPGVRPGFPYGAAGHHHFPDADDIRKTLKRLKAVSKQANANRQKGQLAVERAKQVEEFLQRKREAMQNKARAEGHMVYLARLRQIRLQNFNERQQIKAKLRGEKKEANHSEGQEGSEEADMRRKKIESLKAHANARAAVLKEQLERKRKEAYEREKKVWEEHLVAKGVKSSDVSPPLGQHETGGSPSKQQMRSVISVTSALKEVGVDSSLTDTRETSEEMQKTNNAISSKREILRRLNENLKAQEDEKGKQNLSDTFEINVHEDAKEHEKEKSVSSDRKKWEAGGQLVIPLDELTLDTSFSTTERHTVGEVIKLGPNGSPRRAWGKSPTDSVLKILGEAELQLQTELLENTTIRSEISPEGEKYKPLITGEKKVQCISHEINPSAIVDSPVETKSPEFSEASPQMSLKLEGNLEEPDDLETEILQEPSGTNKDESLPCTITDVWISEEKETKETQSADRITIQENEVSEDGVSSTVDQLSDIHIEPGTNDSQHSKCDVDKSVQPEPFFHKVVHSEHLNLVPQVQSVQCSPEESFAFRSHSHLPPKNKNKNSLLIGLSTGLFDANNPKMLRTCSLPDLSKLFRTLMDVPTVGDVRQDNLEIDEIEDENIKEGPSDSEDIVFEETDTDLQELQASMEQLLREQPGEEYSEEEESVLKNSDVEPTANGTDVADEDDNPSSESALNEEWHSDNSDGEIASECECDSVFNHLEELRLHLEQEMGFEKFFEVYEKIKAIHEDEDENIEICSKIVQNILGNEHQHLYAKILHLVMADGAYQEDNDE
The assay is described as follows: Selectivity interaction (KinomeScan (DiscoverX)) EUB0001049a NEK1. The note with it: at 1 µM.

Assay [7] has as its target T2, Phosphatidylinositol 5-phosphate 4-kinase type-2 gamma (Homo sapiens) (UniProt Q8TBX8).
T2 sequence (whole entry): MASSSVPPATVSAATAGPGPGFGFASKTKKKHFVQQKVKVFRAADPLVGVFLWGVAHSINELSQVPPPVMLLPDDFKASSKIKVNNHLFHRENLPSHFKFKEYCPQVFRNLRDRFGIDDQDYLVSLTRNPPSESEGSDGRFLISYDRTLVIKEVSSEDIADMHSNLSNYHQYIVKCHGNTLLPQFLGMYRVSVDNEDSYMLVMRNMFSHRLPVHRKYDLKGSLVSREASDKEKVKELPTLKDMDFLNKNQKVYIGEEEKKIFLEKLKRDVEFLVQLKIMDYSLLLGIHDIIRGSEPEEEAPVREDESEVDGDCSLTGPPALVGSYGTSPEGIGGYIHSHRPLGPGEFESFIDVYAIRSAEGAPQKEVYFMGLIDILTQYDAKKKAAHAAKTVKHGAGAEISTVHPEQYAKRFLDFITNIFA
The assay is described as follows: Selectivity interaction (ActivX KiNativ screen (kinase selectivity in THP-1 cell lysates)) EUB0000639a PIP4K2C. The format is subcellular. Particulars: lysate, at 0.04 µM.

For assay [8], the target named is Tyrosine-protein kinase Lyn (Homo sapiens, UniProt P07948).
Assay [9] deals with Sodium-dependent noradrenaline transporter (Homo sapiens, UniProt P23975). Description: Selectivity interaction (Norepinephrine Transporter assay, human recombinant ) EUB0000877a SLC6A2.
In assay [10] the target is Tyrosine-protein kinase BTK (Homo sapiens, UniProt Q06187). Description: Selectivity interaction (ActivX KiNativ screen (ex vivo kinase selectivity in human PBMCs)) EUB0001619a BTK. The format is cell-based. The note with it: PBMC, at 1 µM.

% of control, IC50 and % of inhibition data for 8 compounds are collected here from ChEMBL document CHEMBL5465560, “Selectivity Literature for EUbOPEN Chemogenomic Library” (2024).

Broadly, the IC50 is the concentration that inhibits the measured activity by half.

Sequence of SRSF protein kinase 3 (Homo sapiens) (Q9UPE1 whole entry): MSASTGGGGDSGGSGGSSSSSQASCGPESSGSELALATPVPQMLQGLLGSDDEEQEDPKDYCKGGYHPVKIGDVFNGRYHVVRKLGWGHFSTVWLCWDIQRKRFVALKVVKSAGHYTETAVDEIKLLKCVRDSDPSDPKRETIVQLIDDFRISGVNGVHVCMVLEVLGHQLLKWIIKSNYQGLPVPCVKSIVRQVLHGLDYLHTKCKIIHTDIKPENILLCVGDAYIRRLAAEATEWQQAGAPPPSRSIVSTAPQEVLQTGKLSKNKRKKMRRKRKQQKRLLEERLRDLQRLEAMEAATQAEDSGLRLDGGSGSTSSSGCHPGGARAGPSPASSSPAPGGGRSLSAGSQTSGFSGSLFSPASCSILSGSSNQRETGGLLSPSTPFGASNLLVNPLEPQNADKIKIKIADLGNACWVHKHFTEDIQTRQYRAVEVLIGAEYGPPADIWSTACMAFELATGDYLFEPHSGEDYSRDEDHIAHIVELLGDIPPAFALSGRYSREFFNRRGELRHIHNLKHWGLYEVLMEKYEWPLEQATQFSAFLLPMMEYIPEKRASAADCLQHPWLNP
Sequence of Epidermal growth factor receptor (P00533 whole entry): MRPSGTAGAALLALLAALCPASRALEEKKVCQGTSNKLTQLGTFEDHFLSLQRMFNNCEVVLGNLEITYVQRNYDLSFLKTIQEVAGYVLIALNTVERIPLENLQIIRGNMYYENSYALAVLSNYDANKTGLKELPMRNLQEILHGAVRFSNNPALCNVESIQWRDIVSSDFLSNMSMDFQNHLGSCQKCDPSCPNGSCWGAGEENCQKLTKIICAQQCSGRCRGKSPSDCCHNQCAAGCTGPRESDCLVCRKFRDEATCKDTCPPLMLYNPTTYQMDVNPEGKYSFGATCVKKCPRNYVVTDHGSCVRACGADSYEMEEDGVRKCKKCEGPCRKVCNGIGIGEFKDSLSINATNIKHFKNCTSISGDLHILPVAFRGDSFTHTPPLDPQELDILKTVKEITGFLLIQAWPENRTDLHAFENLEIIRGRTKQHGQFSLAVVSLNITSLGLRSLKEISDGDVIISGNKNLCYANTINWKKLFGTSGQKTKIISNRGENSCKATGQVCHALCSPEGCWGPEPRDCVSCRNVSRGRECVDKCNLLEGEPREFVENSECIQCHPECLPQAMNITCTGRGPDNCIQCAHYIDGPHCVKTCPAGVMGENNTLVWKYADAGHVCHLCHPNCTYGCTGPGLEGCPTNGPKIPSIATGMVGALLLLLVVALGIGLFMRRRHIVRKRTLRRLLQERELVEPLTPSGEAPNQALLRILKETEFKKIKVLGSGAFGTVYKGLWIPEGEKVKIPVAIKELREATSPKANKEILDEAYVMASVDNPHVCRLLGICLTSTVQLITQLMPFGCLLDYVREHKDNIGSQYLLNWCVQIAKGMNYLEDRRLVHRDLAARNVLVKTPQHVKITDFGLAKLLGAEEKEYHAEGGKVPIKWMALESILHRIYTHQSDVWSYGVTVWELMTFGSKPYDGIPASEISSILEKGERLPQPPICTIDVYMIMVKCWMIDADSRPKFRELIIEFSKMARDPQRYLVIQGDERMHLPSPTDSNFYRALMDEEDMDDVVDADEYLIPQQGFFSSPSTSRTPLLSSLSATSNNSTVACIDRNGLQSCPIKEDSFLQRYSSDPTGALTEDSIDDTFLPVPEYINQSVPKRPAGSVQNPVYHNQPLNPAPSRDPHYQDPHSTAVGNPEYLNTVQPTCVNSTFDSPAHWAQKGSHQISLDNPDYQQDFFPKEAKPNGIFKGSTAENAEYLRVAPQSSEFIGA
Sequence of Receptor tyrosine-protein kinase erbB-4 (Q15303 whole entry): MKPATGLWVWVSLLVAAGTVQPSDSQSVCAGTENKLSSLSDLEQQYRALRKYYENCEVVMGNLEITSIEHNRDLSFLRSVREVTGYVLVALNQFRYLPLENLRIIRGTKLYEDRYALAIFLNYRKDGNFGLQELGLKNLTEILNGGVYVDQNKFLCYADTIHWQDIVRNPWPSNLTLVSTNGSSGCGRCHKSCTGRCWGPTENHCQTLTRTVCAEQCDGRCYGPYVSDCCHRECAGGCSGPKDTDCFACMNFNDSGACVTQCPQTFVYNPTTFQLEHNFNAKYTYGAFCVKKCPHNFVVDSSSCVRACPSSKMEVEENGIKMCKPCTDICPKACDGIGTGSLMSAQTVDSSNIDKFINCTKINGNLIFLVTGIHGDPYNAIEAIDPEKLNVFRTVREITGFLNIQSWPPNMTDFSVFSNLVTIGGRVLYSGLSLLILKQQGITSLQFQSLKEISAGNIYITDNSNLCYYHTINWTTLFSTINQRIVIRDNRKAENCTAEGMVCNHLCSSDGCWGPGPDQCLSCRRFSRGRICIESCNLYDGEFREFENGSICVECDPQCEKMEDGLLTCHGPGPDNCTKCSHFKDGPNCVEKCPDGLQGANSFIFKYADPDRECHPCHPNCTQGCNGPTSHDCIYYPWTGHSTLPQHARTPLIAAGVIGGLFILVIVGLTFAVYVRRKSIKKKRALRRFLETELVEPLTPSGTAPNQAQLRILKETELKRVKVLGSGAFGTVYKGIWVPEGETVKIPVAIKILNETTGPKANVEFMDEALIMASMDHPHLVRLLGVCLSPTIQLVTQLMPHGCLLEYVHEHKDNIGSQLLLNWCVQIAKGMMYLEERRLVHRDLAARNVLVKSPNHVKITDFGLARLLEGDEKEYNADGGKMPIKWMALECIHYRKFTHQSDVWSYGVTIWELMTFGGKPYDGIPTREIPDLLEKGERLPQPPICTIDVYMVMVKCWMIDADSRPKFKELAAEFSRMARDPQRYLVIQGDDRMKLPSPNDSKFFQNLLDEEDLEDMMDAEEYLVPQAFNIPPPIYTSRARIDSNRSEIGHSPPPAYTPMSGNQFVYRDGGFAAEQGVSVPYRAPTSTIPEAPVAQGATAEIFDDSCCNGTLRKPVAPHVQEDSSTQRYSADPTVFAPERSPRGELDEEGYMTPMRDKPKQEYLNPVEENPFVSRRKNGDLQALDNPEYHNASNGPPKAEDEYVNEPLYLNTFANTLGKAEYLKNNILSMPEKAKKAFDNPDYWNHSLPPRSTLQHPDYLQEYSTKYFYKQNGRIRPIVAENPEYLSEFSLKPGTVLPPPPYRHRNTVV
Sequence of Tyrosine-protein kinase BTK (Q06187 whole entry): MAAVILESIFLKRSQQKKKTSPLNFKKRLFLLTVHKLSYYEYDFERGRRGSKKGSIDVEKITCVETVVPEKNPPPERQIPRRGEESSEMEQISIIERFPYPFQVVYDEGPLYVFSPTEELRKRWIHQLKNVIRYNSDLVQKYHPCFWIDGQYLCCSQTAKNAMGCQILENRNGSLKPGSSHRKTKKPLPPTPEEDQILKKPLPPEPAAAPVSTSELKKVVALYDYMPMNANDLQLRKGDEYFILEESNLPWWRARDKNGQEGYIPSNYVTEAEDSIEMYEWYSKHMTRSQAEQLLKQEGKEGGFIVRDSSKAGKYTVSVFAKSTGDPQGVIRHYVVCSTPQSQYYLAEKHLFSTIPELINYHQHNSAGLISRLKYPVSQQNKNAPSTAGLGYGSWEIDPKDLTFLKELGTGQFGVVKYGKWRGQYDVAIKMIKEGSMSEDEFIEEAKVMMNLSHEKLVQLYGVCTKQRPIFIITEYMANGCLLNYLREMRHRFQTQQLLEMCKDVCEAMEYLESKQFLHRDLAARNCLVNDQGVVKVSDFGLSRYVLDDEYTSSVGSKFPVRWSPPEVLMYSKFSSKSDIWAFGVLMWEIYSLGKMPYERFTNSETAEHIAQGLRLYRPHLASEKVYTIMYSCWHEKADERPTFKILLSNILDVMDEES
Sequence of Sodium-dependent noradrenaline transporter (P23975 whole entry): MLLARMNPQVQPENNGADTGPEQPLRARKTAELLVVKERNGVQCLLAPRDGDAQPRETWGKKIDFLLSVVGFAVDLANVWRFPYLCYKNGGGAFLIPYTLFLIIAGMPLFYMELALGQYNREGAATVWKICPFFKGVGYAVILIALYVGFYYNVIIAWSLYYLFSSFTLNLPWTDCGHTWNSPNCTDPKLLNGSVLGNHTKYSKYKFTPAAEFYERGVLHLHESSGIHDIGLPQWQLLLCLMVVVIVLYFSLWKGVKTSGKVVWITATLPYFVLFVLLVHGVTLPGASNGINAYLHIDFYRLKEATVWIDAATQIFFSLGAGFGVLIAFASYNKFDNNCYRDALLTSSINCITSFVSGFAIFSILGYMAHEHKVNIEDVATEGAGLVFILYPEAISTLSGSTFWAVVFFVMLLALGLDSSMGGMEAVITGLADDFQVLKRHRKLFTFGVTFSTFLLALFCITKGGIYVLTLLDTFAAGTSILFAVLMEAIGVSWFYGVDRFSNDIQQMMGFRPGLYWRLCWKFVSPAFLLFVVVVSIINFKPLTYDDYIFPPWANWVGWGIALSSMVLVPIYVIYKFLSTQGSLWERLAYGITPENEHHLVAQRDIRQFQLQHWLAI
Sequence of Tyrosine-protein kinase Lyn (P07948 whole entry): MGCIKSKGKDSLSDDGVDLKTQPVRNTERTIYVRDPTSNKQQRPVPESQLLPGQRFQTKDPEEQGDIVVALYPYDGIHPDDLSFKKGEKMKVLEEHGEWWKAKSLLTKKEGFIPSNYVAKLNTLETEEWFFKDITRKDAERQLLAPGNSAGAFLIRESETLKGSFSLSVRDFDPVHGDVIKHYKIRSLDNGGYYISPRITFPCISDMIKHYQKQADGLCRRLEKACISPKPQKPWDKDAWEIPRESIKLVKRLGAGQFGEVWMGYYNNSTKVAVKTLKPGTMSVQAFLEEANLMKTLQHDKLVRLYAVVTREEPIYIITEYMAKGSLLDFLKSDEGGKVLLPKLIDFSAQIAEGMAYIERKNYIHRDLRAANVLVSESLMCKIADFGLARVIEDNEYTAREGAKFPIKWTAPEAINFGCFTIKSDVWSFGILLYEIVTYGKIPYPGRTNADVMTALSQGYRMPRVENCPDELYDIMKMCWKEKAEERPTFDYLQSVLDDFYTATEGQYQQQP

As for `C=CC(=O)Nc1cccc(C(=O)Nc2ccc(Nc3cc(-c4[nH]c(SC)nc4C)ccn3)cc2)c1`, the % of control in assay [1] (at 1 µM) was found to be 97%; in assay [1] (at 5 µM) it was 101%.
As to `Cc1cc([C@@H](C)Nc2ccccc2C(=O)O)c2nc(N3CCOCC3)cc(=O)n2c1` [AZD-6482], the IC50 in [2] is above 298 µM. Moreover, in assay [3], the % of control is 100%.
Consider `CC(=O)Nc1cccc(-n2c(=O)n(C3CC3)c(=O)c3c(Nc4ccc(I)cc4F)n(C)c(=O)c(C)c32)c1`, for which the % of control amounted to 112% in assay [4] and 95% in [5].
For `COc1cc(Nc2nc(C)cc(-c3cnn4nc(OC)ccc34)n2)cc(C(F)(F)F)c1`, in assay [6], the % of control came to 100%.
On to `CC[C@@H]1[C@H](F)C(=O)N[C@@H]1COc1nccc2cc(C(N)=O)c(OC)cc12` [ZIMLOVISERTIB], for which the % of inhibition in assay [7] amounted to 6.2%.
Regarding `CCc1cccc(CC)c1NC(=O)c1nn(C)c2c1CCc1cnc(Nc3ccc(C(=O)NC4CCN(C)CC4)cc3OC(F)(F)F)nc1-2`, the IC50 in [8] was above 10 µM.
Regarding `CCC(=O)N1CC[C@H](Nc2ncnc3c2CN(c2cnc(OC)c(C(F)(F)F)c2)CC3)C1` [LENIOLISIB], the IC50 in [9] is above 30 µM.
For `N#Cc1cccc(-c2c[nH]c3ncnc(N4CCOCC4)c23)c1`, the % of inhibition in [10] turned out to be 13%.
